In experiment [1] the test system is HIV 115-mer. Description: Effect of unirradiated isopsoralen on PCR amplification. In kind it is biochemical. The conditions noted are these: for Counts (CPM): unirradiated, 30 cycles, 42200 without AMDMIP. The procedure: To systematically evaluate the effect of the presence of increasing concentrations of isopsoralen on PCR, AMDMIP (0, 100, 200, 400 µg/ml) was added to 10^7 copies of HIV 115-mer as template. PCR was then carried out for 30 cycles in the presence of α-^32P-dCTP. The PCR product was run on denaturing polyacrylamide gel and autoradiographed. The bands were thereafter cut and counted.

For experiment [2], the system named is 115-mer. Nature of the experiment: Crosslinkable Oligonucleotide Probe Analysis (COP) of sterilized PCR product. In kind it is biochemical, HIV. The source says: Because of this, these isopsoralen-modified single strands should remain detectable by hybridization procedures. […] Preparation of Samples: The HIV 115-mer system with primers SK-38/SK-39 was used for the experiment (see Figure 36, "HIV Oligonucleotide System"). Two types of starting template were used: previously amplified 115-mer or genomic DNA, isolated from an individual known to be infected with HIV (MACS sample). For previously amplified 115-mer between 10^5 and 10^6 copies were used for starting template. For the genomic (MACS) sample, approximately 1 µg (3 x 10^5 copies) of genomic DNA were used. Two PCR samples were prepared for each type of template then amplification was carried out for either 20 or 30 cycles. One of the two PCR samples contained AMDMIP at 200 µg/ml while the other was AMDMIP free. Following amplification, the AMDMIP containing samples were divided and half were irradiated. Analysis (OH or COP) was then done on the three samples from each set (AMDMIP free, AMDMIP unirradiated, and AMDMIP irradiated) for each cycle number. The AMDMIP free samples served as control, the AMDMIP unirradiated sampes adressed the effect of non-covalently bound AMDMIP on detection, and AMDMIP irradiated samples addressed the effect of covalently bound AMDMIP on detection.
COP and OH assays were performed a follows. 10 µl of the PCR reaction mixture was added to 3.3 µl of "probe mix" [5'-labelled SK-19 (normal or monoadducted) at 10^-8 M containing EDTA and an appropriate salt mixture], overlaid with 30-40 µl of light mineral oil, then heated to 95-100°C for 5 minutes. For COP, the hybridization mixture as placed in the PTI device at 56°C and irradiated for 15 minutes. Following this, loading dyes (containing urea or formamide) were added, the sample heated to 95-100°C for 5 minutes, quick chilled on wet ice, then loaded on a denaturing PAGE gel followed by electrophoresis under denaturing conditions. For OH reactions, the hybridization mixture was incubated at 56°C for 30 minutes, loading dyes added, and aliquots loaded directly into a native PAGE gel followed by electrophoresis under native conditions. 1. Samples 1-6 contain previously amplified 115-mer that was re-amplified either 20 (samples 1,3,5) or 30 (Samples 2,4,6) cycles then detected by COP. Samples 1 & 2 are controls (without AMDMIP); samples 3 and 4 are (with AMDMIP and with light) sterilized samples; samples 5 & 6 are (with AMDMIP but without light) controls. The bands corresponding to amplified 115-mer crosslinked to labelled 41-mer probe (SK-19 MA) are the upper bands in Figure 46. Samples 11-16 are the same series except the MACS sample was used as template.

Experiment [3] deals with human placental DNA. Description: PCR amplification with unirradiated AMDMIP and DMSO co-solvent. In kind it is biochemical. To be noted: for CPM of product bands: AMDMIP 200 µg/ml unirradiated. How it is done: In this example, the effect of DMSO on PCR amplification in the presence of high concentrations of sterilizing compound (AMDMIP) was investigated. Samples were prepared for PCR which contained 1 µg of human placental DNA either with or without (unirradiated) AMDMIP (200 µg/ml). The samples were amplified 30 cycles under standard PCR conditions in the presence of 0%, 1%, 5% or 10% DMSO. The reaction mix contained α-^32P-dCTP. Following amplification, the samples were analyzed by PAGE (data not shown).

Experiment [4] concerns DNA. To be noted: DNA base pair:isopsoralen ratio of 24.3 to 1; 13.1 µg/ml; cited from earlier work.
Experiment [5] has as its system DNA polymerase I from E. coli. B. The conditions noted are these: Piette and Hearst 1983; nick-translating a double-stranded template; cited from earlier work.
Where [6] appears, read: Sample 4: previously amplified 115-mer, 30 cycles, with AMDMIP and with light.
The mark [7] stands for this setting: Sample 5: previously amplified 115-mer, 20 cycles, with AMDMIP but without light.
Where [8] appears, read: Sample 6: previously amplified 115-mer, 30 cycles, with AMDMIP but without light.
Setting [9] is: Sample 13: MACS genomic template, 20 cycles, with AMDMIP and with light.
Setting [10] is: Sample 14: MACS genomic template, 30 cycles, with AMDMIP and with light.
The mark [11] stands for this setting: Sample 15: MACS genomic template, 20 cycles, with AMDMIP but without light.
The mark [12] stands for this setting: Sample 16: MACS genomic template, 30 cycles, with AMDMIP but without light.

Turning to “4'-Aminomethyl-4,5'-dimethylisopsoralen [AMDMIP]”, in experiment [1] (HIV 115-mer system), the “concentrations compatible with the PCR system” value is given as “up to 400 µg/ml”. Further, the entries for the “Counts (CPM)” value in experiment [1] ([AMDMIP] 100 µg/ml), in experiment [1] ([AMDMIP] 200 µg/ml) and in experiment [1] ([AMDMIP] 400 µg/ml) were 77200 CPM, 77500 CPM and 69400 CPM, respectively. Further, the CPM turned out to be 1944 CPM in experiment [2] (Sample 3: previously amplified 115-mer, 20 cycles, with AMDMIP (200 µg/ml) and with light); 36452 CPM in experiment [2] (setting [6]); 4480 CPM in experiment [2] (setting [7]); 39596 CPM in experiment [2] (setting [8]); 460 CPM in experiment [2] (setting [9]); 41777 CPM in experiment [2] (setting [10]). Also, the results for the CPM in experiment [2] (setting [11]) and in experiment [2] (setting [12]) were 464 CPM and 35176 CPM, respectively. For the same molecule, the “CPM (%) relative to sample without AMDMIP” value in experiment [2] (Sample 3: previously amplified 115-mer, 20 cycles, with AMDMIP and with light) is 62%; in experiment [2] (setting [6]) it was 83%; in experiment [2] (setting [7]) it was 144%; in experiment [2] (setting [8]), 90%; in experiment [2] (setting [9]), 52%; in experiment [2] (setting [10]), 78%. The “CPM (%) relative to sample without AMDMIP” value in experiment [2] (setting [11]) is given as 53%; in experiment [2] (setting [12]), 66%. In experiment [3] (200 µg/ml, no DMSO, 30 cycles), the “amplification with unirradiated AMDMIP” value was “virtually no detectable amplification product”. For the same molecule, the “CPM of product bands” value in experiment [3] (0% DMSO) is 2500 CPM; in experiment [3] (1% DMSO), 2800 CPM; in experiment [3] (5% DMSO) it was 86,000 CPM; in experiment [3] (10% DMSO) it was 102,000 CPM. Besides, the “1 photobound AMDMIP per n DNA base pairs” value in experiment [4] was 151 DNA base pairs.

Regarding `Cc1cc2occc2c2oc(=O)ccc12` [MIP, 5-Methylisopsoralen], the “inhibition of E. Coli polymerase I by covalently bound monoadducts” value in experiment [5] is listed as “not inhibited”.

The record behind these values is patent publication EP0497921B1, “METHOD FOR INHIBITING ENZYMATIC SYNTHESIS OF NUCLEIC ACIDS USING ISOPSORALENS” (ISAACS, Stephen T., priority 1989, dated 1991).
